The record followed here is patent US7169778B2, “Pteridinones as kinase inhibitors” (Warner-Lambert Company, priority 1999, dated 2007).

The target in data set [1] is T1, mouse PDGF-β receptor tyrosine kinase (Mus musculus, UniProt P05622).
T1 construct: amplify a fragment of DNA that codes for the intracellular tyrosine kinase domain; made in house; host or cells: SF9 insect cells (baculovirus)
Nature of the data set: PDGF receptor tyrosine kinase assay. The class given is biochemical. From the text:
(§1) Full-length cDNAs for the mouse PDGF-β and human FGF-1 (flg) receptor tyrosine kinases were obtained from J. Escobedo and prepared as described in J. Biol. Chem., 1991;262:1482–1487. PCR primers were designed to amplify a fragment of DNA that codes for the intracellular tyrosine kinase domain. The fragment was inserted into a baculovirus vector, cotransfected with AcMNPV DNA, and the recombinant virus isolated. SF9 insect cells were infected with the virus to overexpress the protein, and the cell lysate was used for the assay. Assays were performed in 96-well plates (100 μL/incubation/well), and conditions were optimized to measure the incorporation of ^32P from γ^32P-ATP into a glutamate-tyrosine co-polymer substrate. Briefly, to each well was added 82.5 μL of incubation buffer containing 25 mM Hepes (pH 7.0), 150 mM NaCl, 0.1% Triton X-100, 0.2 mM PMSF, 0.2 mM Na3VO4, 10 mM MnCl2, and 750 μg/mL of Poly (4:1) glutamate-tyrosine followed by 2.5 μL of inhibitor and 5 μL of enzyme lysate (7.5 μg/μL FGF-TK or 6.0 μg/μL PDGF-TK) to initiate the reaction. Following a 10 minute incubation at 25° C., […] of γ^32P-ATP (0.4 μCi plus 50 μM ATP) was added to each well, and samples were incubated for an additional 10 minutes at 25° C. The reaction was terminated by the addition of 100 μL of 30% TCA containing 20 mM sodium pyrophosphate and precipitation of material onto glass fiber mats (Wallac). Filters were washed three times with 15% TCA containing 100 mM sodium pyrophosphate, and the radioactivity retained on the filters counted in a Wallac 1250 Betaplate reader. Nonspecific activity was defined as radioactivity retained on the filters following incubation of samples with buffer alone (no enzyme). Specific enzymatic activity (enzyme plus buffer) was defined as total activity minus nonspecific activity. The concentration of a compound that inhibited specific activity by 50% (IC50) was determined based on the inhibition curve.

The target of data set [2] is T2, human FGF-1 (flg) receptor tyrosine kinase (Homo sapiens, UniProt P11362).
T2 construct: amplify a fragment of DNA that codes for the intracellular tyrosine kinase domain; made in house; host or cells: SF9 insect cells (baculovirus)
Nature of the data set: FGF receptor tyrosine kinase assay. The following applies: for inhibition at 5 µM: @ 5 (unit μm); for inhibition at 0.5 µM: @ 0.5 (unit μm). The class given is biochemical.
Source text: as §1

Data set [3] has as its target N-terminal truncated Wee 1 (Homo sapiens, UniProt P30291). Nature of the data set: Wee 1 OY kinase assay. The class given is biochemical. The following applies: read-out: WEE1OY IC50. As to the method: These kinase assays are carried out on 96-well filter plates (Millpore, Cat. MADPN0B50) in 50 μL kinase assay buffer (50 mM Tris, pH 8.0, 10 mM NaCl, 10 mM MgCl2, 10 μM ATP with 0.25 μCi [r-32P]ATP, 1 mM DTT) with 0.1 μg purified N-terminal truncated Wee 1 and 6 μg poly(Orn, Tyr)4:1 (Sigma, P4534). The assay is started by adding ATP and incubating at room temperature for 20 minutes with shaking. The reactions are terminated by adding 50 μL ice-cold 20% TCA (trichloracetic acid) with 0.1 M sodium pyrophosphate and shaking the resultant mixture for 1 minute. The plate is then incubated at 4° C. for 1 hour to allow protein to precipitate. These plates are then washed 5 times with 200 μL ice-cold 10% TCA and with 0.1 M sodium pyrophosphate per wash. Twenty-five microliters scintillation liquid is then added to each well, and the plate is counted in Wallac's MicroBeta counter 1450.

The next data set addresses C-src kinase (Homo sapiens, UniProt P12931). Nature of the data set: C-src kinase assay. The class given is biochemical. On the procedure: C-src kinase was purified from baculovirus infected insect cell lysates using an antipeptide monoclonal antibody directed against the N-terminal amino acids (amino acids 2–17) of c-src. The antibody, covalently linked to 0.65 μm latex beads, was added to a suspension of insect cell lysis buffer comprised of 150 mM NaCl, 50 mM Tris pH 7.5, 1 mM DTT, 1% NP-40, 2 mM EGTA, 1 mM sodium vanadate, 1 mM PMSF, 1 μg/mL each of leupeptin, pepstatin, and aprotinin. Insect cell lysate containing c-src protein was incubated with these beads for 3 to 4 hours at 4° C. with rotation. At the end of the lysate incubation, the beads were rinsed three times in lysis buffer, resuspended in lysis buffer containing 10% glycerol, and frozen. These latex beads were thawed, rinsed three times in assay buffer (40 mM Tris, pH 7.5, 5 mM mgCl2) and suspended in the same buffer. In a Millipore 96-well plate with a 0.65 μm polyvinylidine membrane bottom were added the reaction components: 10 μL C-src beads, 10 μL of 2.5 mg/mL poly GluTyr substrate, 5 μM ATP containing 0.2 μCi labeled ^32P-ATP, 5 μL DMSO containing inhibitors or as a solvent control, and buffer to make the final volume 125 μL. The reaction was started at room temperature by addition of the ATP and quenched 10 minutes later by the addition of 125 μL of 30% TCA, 0.1 M sodium pyrophosphate for 5 minutes on ice. The plate was then filtered and the wells washed with two […] aliquots of 15% TCA, 0.1 M pyrophosphate. The filters were then punched, counted in a liquid scintillation counter, and the data examined for inhibitory activity in comparison to a known inhibitor such as erbstatin. The method is also described in J. Med. Chem., 1994;37:598–609.

A further data set has as its target cdk2/cyclinE (Homo sapiens, UniProt P24941). Nature of the data set: Cyclin-dependent kinase assay cdk2/cyclinE. The class given is biochemical. The settings on record: cyclin dependent kinase 2/cyclin E complex; read-out: CDK2E IC50. On the procedure:
(§2) All components except the ATP were added to the wells, and the plate was placed on a plate mixer for 2 minutes. The reaction was begun by addition of [^32P]ATP, and the plate was incubated at 25° C. for 15 minutes. The reaction was terminated by addition of 0.1 mL of 20% TCA. The plate was kept at 4° C. for at least 1 hour to allow the substrate to precipitate. The wells were then washed five times with 0.2 mL of 10% TCA and ^32P incorporation determined using a beta plate counter (Wallac Inc., Gaithersburg, Md.).

The target of the next data set is cdk4/cyclin D1 complex (Homo sapiens, UniProt P11802). The data set is described as follows: Cyclin-dependent kinase 4 (CDK4) assay. The class given is biochemical. The following applies: cyclin dependent kinase 4/cyclin D1 complex; read-out: CDK4D IC50. On the procedure:
Enzyme assays for IC50 determinations (Table 1) and kinetic evaluation were performed in 96-well filter plates (Millipore MADVN6550) The total volume was 0.1 mL containing a final concentration of 20 mM TRIS (tris[hydroxmethyl]aminomethane), at pH 7.4, 50 mM NaCl, 1 mM dithiothreitol, 10 mM mgCl2, 25 μM ATP containing 0.25 μCi of [^32P]ATP, 20 ng of cdk4/cyclin D1 complex, 1 μg of retinoblastoma and appropriate dilutions of a compound of the present invention. All components except the ATP were added to the wells, and the plate was placed on a plate mixer for 2 minutes. The reaction was started by adding [^32P]ATP and the plate incubated at 25° C. for 15 minutes. The reaction was terminated by addition of 0.1 mL of 20% TCA. The plate was kept at 4° C. for at least 1 hour to allow the substrate to precipitate. The wells were then washed five times with 0.2 mL of 10% TCA and ^32p incorporation determined with a beta plate counter (Wallac Inc., Gaithersburg, Md.).

Another data set concerns the target cdk2/cyclinA (Homo sapiens, UniProt P24941). Nature of the data set: Cyclin-dependent kinase assay cdk2/cyclinA. The class given is biochemical. The following applies: cyclin dependent kinase 2/cyclin A complex; read-out: CDK2A IC50. As to the method: as §2
The target in a further data set is cdc2/cyclinB (Homo sapiens, UniProt P06493). Nature of the data set: Cyclin-dependent kinase assay cdc2/cyclinB. The following applies: cyclin dependent kinase 1/cyclin B complex; read-out: CDK1B IC50. The class given is biochemical. On the procedure:
as §2

Setting [4] is: read-out: FGF % @ concentration.

Sequence of N-terminal truncated Wee 1 (P30291 299-569 limits assumed): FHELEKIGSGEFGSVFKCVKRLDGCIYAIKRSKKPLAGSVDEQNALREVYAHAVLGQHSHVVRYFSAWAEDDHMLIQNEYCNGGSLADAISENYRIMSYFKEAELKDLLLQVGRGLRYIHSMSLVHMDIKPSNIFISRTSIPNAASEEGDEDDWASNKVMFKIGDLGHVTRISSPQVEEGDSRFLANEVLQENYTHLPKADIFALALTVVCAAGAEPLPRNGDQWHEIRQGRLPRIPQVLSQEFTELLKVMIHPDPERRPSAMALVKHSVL
Sequence of C-src kinase (P12931 whole entry, the tested form may be a part): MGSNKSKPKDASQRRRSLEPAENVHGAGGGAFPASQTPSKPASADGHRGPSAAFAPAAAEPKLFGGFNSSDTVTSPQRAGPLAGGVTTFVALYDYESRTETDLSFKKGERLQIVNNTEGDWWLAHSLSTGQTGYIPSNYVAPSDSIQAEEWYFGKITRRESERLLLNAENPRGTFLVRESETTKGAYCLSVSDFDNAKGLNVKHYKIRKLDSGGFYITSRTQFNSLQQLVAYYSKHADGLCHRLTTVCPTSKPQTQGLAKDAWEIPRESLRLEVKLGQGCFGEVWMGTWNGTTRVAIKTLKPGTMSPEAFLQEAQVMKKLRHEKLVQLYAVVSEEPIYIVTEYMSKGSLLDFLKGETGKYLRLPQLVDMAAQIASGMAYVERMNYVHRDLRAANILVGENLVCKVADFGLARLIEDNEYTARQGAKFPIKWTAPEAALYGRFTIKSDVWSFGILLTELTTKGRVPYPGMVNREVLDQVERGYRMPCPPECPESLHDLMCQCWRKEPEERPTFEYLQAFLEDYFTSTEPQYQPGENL
Sequence of cdc2/cyclinB (P06493 whole entry, species assumed): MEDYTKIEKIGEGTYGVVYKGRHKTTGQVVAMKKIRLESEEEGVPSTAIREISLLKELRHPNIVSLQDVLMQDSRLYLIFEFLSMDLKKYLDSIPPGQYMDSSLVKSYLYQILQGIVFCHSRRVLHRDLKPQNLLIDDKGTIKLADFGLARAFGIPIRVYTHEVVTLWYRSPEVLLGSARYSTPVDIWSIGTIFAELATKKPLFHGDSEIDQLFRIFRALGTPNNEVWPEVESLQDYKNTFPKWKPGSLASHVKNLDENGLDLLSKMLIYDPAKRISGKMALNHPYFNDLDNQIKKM
Sequence of cdc2/cyclinB (P14635 whole entry partner, species assumed): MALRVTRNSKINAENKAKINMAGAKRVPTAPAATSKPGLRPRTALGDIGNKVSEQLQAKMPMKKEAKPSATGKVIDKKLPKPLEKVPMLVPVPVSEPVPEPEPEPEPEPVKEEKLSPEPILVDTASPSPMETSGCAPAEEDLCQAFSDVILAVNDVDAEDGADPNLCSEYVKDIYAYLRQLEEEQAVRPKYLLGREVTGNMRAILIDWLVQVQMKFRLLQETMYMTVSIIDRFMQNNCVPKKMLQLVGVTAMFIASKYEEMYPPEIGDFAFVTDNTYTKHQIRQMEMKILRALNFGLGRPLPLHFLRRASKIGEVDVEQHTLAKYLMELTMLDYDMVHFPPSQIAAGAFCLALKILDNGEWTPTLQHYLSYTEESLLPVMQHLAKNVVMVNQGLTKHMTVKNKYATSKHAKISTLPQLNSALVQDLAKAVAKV
Sequence of cdk4/cyclin D1 complex (P11802 whole entry, species assumed): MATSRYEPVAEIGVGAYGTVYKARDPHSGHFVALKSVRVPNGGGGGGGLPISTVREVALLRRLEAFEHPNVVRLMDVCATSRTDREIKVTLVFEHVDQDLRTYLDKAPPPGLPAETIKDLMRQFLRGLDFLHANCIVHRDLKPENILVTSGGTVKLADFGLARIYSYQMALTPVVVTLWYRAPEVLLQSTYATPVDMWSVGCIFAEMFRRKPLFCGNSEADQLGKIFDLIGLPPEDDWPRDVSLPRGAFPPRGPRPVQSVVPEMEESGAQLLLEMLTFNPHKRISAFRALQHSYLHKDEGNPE
Sequence of cdk4/cyclin D1 complex (P24385 whole entry partner, species assumed): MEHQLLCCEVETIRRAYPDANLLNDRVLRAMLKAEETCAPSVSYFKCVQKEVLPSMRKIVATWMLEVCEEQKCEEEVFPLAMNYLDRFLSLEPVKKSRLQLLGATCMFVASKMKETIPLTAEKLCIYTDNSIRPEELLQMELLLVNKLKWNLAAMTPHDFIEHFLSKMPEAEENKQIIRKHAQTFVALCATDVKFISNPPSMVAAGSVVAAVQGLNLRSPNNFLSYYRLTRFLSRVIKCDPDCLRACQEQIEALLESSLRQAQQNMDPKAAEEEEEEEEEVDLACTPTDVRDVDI
T2 sequence (P11362 478-767 limits assumed): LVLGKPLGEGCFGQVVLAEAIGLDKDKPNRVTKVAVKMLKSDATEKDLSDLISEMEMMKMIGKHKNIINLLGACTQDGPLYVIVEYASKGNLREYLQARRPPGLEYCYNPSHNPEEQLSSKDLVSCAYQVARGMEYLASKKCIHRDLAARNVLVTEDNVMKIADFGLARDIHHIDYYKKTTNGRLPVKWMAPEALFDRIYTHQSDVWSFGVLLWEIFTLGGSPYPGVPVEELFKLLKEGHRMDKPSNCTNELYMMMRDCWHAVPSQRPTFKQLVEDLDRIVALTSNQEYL
T1 sequence (P05622 599-961 limits assumed): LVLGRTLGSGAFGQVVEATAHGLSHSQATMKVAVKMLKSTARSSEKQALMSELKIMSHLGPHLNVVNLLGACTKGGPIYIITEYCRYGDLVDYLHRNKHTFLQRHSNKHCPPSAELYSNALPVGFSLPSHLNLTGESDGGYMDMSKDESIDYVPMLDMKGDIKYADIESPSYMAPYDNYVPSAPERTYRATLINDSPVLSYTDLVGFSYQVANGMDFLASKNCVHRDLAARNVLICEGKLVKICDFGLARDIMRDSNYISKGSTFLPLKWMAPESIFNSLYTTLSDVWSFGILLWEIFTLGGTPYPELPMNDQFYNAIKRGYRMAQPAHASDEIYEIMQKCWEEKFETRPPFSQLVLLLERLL

In general, IC50 refers to the point on the concentration scale where inhibition reaches its midpoint. As usually defined, the melting point is the temperature, or range, at which the solid turns liquid. `CCN(CC)C(=O)c1ccc(Nc2ncc3nc(-c4c(Cl)cccc4Cl)c(=O)n(C)c3n2)cc1` [Compound 6, 6-(2,6-Dichlorophenyl)-2-[[4-(diethylaminocarbonyl)phenyl]amino]-8-methyl-8H-pteridin-7-one] yielded a melting point of 239 to 241 °C. The compound also had an IC50 in data set [1] of 3130 nM. Moreover, in data set [2], the IC50 was 50 nM. In addition, in [3], the IC50 worked out at 987 nM. The same compound registered an IC50 on C-src kinase of 290 nM.
Consider `O=c1cnc2cnc(Nc3ccc(N4CCOCC4)cc3)nc2n1C1CCCC1` [Compound 7, 8-Cyclopentyl-2-[[4-(morpholin-4-yl)phenyl]amino]-8H-pteridin-7-one], for which the melting point fell in the range of 182 to 184 °C. Besides, the IC50 on cdk2/cyclinE turned out to be 650 nM. The IC50 on cdk4/cyclin D1 complex came out at 60 nM. The same compound yielded an IC50 in data set [1] of 12000 nM. Besides, the IC50 on cdk2/cyclinA amounted to 64 nM. Moreover, in data set [2] (setting [4]), the inhibition at 5 µM came to 33%. Besides, the IC50 in data set [3] is over 50000 nM. At C-src kinase, this compound displayed an IC50 of 8470 nM.
Regarding `CN1CCN(c2ccc(Nc3ncc4ncc(=O)n(C5CCCC5)c4n3)cc2)CC1` [Compound 8, 8-Cyclopentyl-2-[[4-(4methylpiperazin-1-yl)phenyl]amino]-8H-pteridin-7-one], the melting point was in the range of 208 to 211 °C. Moreover, the IC50 at cdk2/cyclinE was found to be 950 nM. The IC50 at cdk4/cyclin D1 complex is 41 nM. In addition, the midpoint of inhibition in [1], the IC50, lay at 6000 nM. The IC50 at cdk2/cyclinA came out at 260 nM. In addition, the inhibition at 0.5 µM in data set [2] (setting [4]) is 41%. The IC50 in data set [3] is over 50000 nM. At C-src kinase, this compound came in with an IC50 of 3350 nM.
`Cc1nc2cnc(Nc3ccc(N4CCN(C)CC4)cc3)nc2n(C2CCCC2)c1=O` [Compound 9, 8-Cyclopentyl-6methyl-2-[[4-(4-methylpiperazin-1-yl)phenyl]amino]-8H-pteridin-7-one] came in with a melting point of 210 to 211 °C. Besides, the IC50 on cdk2/cyclinE stood at 41000 nM. In addition, at cdk4/cyclin D1 complex, the IC50 was 47 nM. Besides, the “PDGF % @ concentration” value in [1] (@ 5 (unit μm)) is given as 59% @ 5. Besides, the IC50 at cdk2/cyclinA is 2780 nM. Moreover, the inhibition at 0.5 µM in [2] (setting [4]) stood at 41%. Moreover, the IC50 in data set [3] was over 50000 nM. In addition, the IC50 against C-src kinase is 3000 nM.
Consider `Cc1nc2cnc(Nc3ccc(N4CCOCC4)cc3)nc2n(C2CCCC2)c1=O` [Compound 10, 8-Cyclopentyl-6-methyl-2-[[4-(morpholin-4-yl)phenyl]amino]-8H-pteridin-7-one], for which the melting point lay in the range of 230 to 234 °C. Moreover, the IC50 on cdk2/cyclinE was determined as 8000 nM. In addition, at cdk4/cyclin D1 complex, the IC50 turned out to be 440 nM. The same compound had an IC50 in data set [1] of over 50000 nM. Further, the IC50 on cdk2/cyclinA stood at 1840 nM. Besides, in data set [2] (@ 50 (unit μm), read-out: FGF % @ concentration), the inhibition at 50 µM came to 57%. Besides, in data set [3], the IC50 is over 50000 nM. Moreover, the IC50 on C-src kinase came to 34000 nM.
Turning to `O=c1cnc2cnc(Nc3ccncc3)nc2n1C1CCCC1` [Compound 11, 8-Cyclopentyl-2-[(pyridin-4-yl)amino]-8H-pteridin-7-one], the melting point was in the range of 236 to 238 °C. Also, the IC50 at cdk2/cyclinE is 50 nM. In addition, on cdk4/cyclin D1 complex, the IC50 is 1250 nM. In addition, the IC50 in data set [1] was over 50000 nM. Besides, on cdk2/cyclinA, the IC50 turned out to be 36 nM. In [2] (setting [4]), the inhibition at 5 µM was determined as 31%. Moreover, the IC50 in data set [3] was over 50000 nM. The compound also yielded an IC50 against C-src kinase of 11000 nM. The IC50 on cdc2/cyclinB was found to be 354 nM.
As for `O=c1cnc2cnc(Nc3ccc(N4CCNCC4)cc3)nc2n1C1CCCC1` [Compound 16, 8-Cyclopentyl-2-[[4-(piperazin-1-yl)phenyl]amino]-8H-pteridin-7-one], the IC50 came out at 610 nM at cdk2/cyclinE; 7 nM at cdk4/cyclin D1 complex; 180 nM on cdk2/cyclinA; 3300 nM on C-src kinase; 750 nM on cdc2/cyclinB.
In the case of `NC1CCN(c2ccc(Nc3ncc4ncc(=O)n(C5CCCC5)c4n3)cc2)C1` (stereo not shown) [Compound 17, 2-[[4-(3-Aminopyrrolidin-1-yl)phenyl]amino]-8-cyclopentyl-8H-pteridin-7-one], the IC50 on cdk2/cyclinE is 1900 nM; on cdk4/cyclin D1 complex, 43.5 nM; in data set [1], 2190 nM; at cdk2/cyclinA, 94 nM; at cdc2/cyclinB it was 400 nM.
Compound `CC(C)(C)OC(=O)N1CCN(c2ccc(Nc3ncc4ncc(=O)n(C5CCCC5)c4n3)cc2)CC1` [Compound 52, 2-[[4-[4(tert-Butoxycarbonyl)piperazin-1-yl]phenyl]amino]-8-cyclopentyl-8H-pteridin-7-one] came in with a melting point of 215 to 217 °C. In addition, the IC50 on cdk2/cyclinE was 4500 nM. Further, at cdk4/cyclin D1 complex, the IC50 is 1800 nM. On cdk2/cyclinA, the IC50 was found to be 530 nM. For the same compound, at C-src kinase, the IC50 is over 50000 nM.
